According to ChEMBL document CHEMBL1201862, “PubChem BioAssay data set” (2004):
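A five-concentration, 48-hour dose response in 96-well plates underlies each endpoint, interpolated linearly between surrounding concentrations. GI50 = concentration required for 50% inhibition of growth.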 The source made the active and inactive calls. Rule as the data show it: active = GI50 up to about 1.1 µM and inactive = higher.

Legend:
Experiment in all cases: DTP human tumour cell line panel, 48 h
SN12C = system: SN12C
SW-620 = system: SW-620
HOP-92 = system: HOP-92
SNB-75 = system: SNB-75
DLD-1 = system: DLD-1
A549 = system: A549
A498 = system: A498
M14 = system: M14
UACC-62 = system: UACC-62
NCI-H460 = system: NCI-H460
NCI-H226 = system: NCI-H226
OVCAR-4 = system: OVCAR-4
OVCAR-3 = system: OVCAR-3
HCC 2998 = system: HCC 2998
NCI-H23 = system: NCI-H23
CCRF-CEM = system: CCRF-CEM
HCT-116 = system: HCT-116
OVCAR-5 = system: OVCAR-5

Row | SMILES | GI50 (SN12C) | GI50 (SW-620) | GI50 (HOP-92) | GI50 (SNB-75) | GI50 (DLD-1) | GI50 (A549) | GI50 (A498) | GI50 (M14) | GI50 (UACC-62) | GI50 (NCI-H460) | GI50 (NCI-H226) | GI50 (OVCAR-4) | GI50 (OVCAR-3) | GI50 (HCC 2998) | GI50 (NCI-H23) | GI50 (CCRF-CEM) | GI50 (HCT-116) | GI50 (OVCAR-5)
1 | Cc1c(-c2nnc(-c3ccc(Cl)cc3)o2)c(=O)n(-c2ccccc2)n1C | > 100 µM (inactive) | > 100 µM (inactive) | > 100 µM (inactive) | > 100 µM (inactive) | > 100 µM (inactive) | > 100 µM (inactive) | > 100 µM (inactive) | > 100 µM (inactive) | > 100 µM (inactive) | > 100 µM (inactive) | > 100 µM (inactive) | > 100 µM (inactive) | > 100 µM (inactive) | > 100 µM (inactive) | > 100 µM (inactive) | > 100 µM (inactive) | > 100 µM (inactive) | 
2 | Oc1c2c(nc3cc4c(cc13)OCO4)-c1ccccc1CC2 | > 100 µM (inactive) | > 100 µM (inactive) |  | 23.6 µM (inactive) | > 100 µM (inactive) | > 100 µM (inactive) | > 100 µM (inactive) | > 100 µM (inactive) | > 100 µM (inactive) | > 100 µM (inactive) | > 100 µM (inactive) | > 100 µM (inactive) | > 100 µM (inactive) | > 100 µM (inactive) | > 100 µM (inactive) | > 100 µM (inactive) | > 100 µM (inactive) | 
3 | CCC(C)CNC1=C(NC(C)=O)C(=O)c2ccccc2C1=O (stereo not drawn) | > 100 µM (inactive) | > 100 µM (inactive) |  | > 100 µM (inactive) | > 100 µM (inactive) | > 100 µM (inactive) |  | > 100 µM (inactive) | > 100 µM (inactive) | 94.6 µM (inactive) | > 100 µM (inactive) | > 100 µM (inactive) | 55.7 µM (inactive) | > 100 µM (inactive) | 67.8 µM (inactive) | > 100 µM (inactive) | > 100 µM (inactive) | 
4 | CN(C)c1ccc(/C=C(\C#N)C(=O)c2ccccc2)cc1Br | > 100 µM (inactive) | 66.1 µM (inactive) | > 100 µM (inactive) | 41.8 µM (inactive) | 67.5 µM (inactive) | > 100 µM (inactive) |  | > 100 µM (inactive) | 51.3 µM (inactive) | > 100 µM (inactive) | 39.3 µM (inactive) | > 100 µM (inactive) | > 100 µM (inactive) | > 100 µM (inactive) | > 100 µM (inactive) | 35.6 µM (inactive) | > 100 µM (inactive) | > 100 µM (inactive)
5 | C/C=C(/CCC1NCCC2c3ccccc3NC12)[Si](C)(C)C (stereo not drawn) | 11.7 µM (inactive) | 3.02 µM (inactive) | 5.58 µM (inactive) | 9.73 µM (inactive) | 5.16 µM (inactive) | 14.6 µM (inactive) |  | 3.66 µM (inactive) | 13.5 µM (inactive) | 3.3 µM (inactive) | 13.3 µM (inactive) | 7.57 µM (inactive) | 11.4 µM (inactive) | 2.02 µM (inactive) | 13.8 µM (inactive) | 3.6 µM (inactive) | 3.52 µM (inactive) | 7.28 µM (inactive)
6 | N/N=C1\c2ccccc2C2/C(=N\N)c3ccccc3C12 (stereo not drawn) | > 100 µM (inactive) | > 100 µM (inactive) | > 100 µM (inactive) | 56.1 µM (inactive) | > 100 µM (inactive) | > 100 µM (inactive) |  | > 100 µM (inactive) | > 100 µM (inactive) | > 100 µM (inactive) |  | > 100 µM (inactive) | > 100 µM (inactive) | > 100 µM (inactive) | > 100 µM (inactive) | > 100 µM (inactive) |  | > 100 µM (inactive)
7 | N=C(c1ccccc1)N1CCCCC1 | > 100 µM (inactive) | > 100 µM (inactive) | < 0.01 µM (active) | > 100 µM (inactive) | > 100 µM (inactive) | > 100 µM (inactive) |  | > 100 µM (inactive) |  | > 100 µM (inactive) | > 100 µM (inactive) | > 100 µM (inactive) |  | > 100 µM (inactive) | > 100 µM (inactive) |  | > 100 µM (inactive) | > 100 µM (inactive)
8 | COC(=O)C(=O)C(C(=O)C=C(C)C)C(=O)C(=O)Nc1ccc(Cl)cc1C (stereo not drawn) | > 100 µM (inactive) |  | > 100 µM (inactive) | > 100 µM (inactive) | > 100 µM (inactive) | > 100 µM (inactive) | > 100 µM (inactive) | > 100 µM (inactive) | > 100 µM (inactive) | > 100 µM (inactive) | > 100 µM (inactive) | > 100 µM (inactive) | > 100 µM (inactive) | > 100 µM (inactive) | > 100 µM (inactive) | 87.5 µM (inactive) | > 100 µM (inactive) | > 100 µM (inactive)
